Reference: patent US20260001875A1, “AMINOPYRIMIDINYL DERIVATIVES FOR THE TREATMENT OF PARKINSON'S DISEASE” (UNIVERSITY OF DUNDEE, priority 2022, published 2026)
“Also recorded” adds a separate entry of the source. Read-outs that look alike come from different tables or passages of the source.

Tests used:
VHL = VHL (Homo sapiens, UniProt P40337); assay: Fluorescence polarization competitive binding assay; conditions: for Ki: displacement of FAM-labelled HIF-1α peptide from VCB
Method: FP competitive binding assays were performed following the method described previously (Bond et al, J. Med. Chem. 2021, 64 (20), 15477-15502.). All the measurements were taken on a PHERstar (BMG LABTECH) plate reader installed with a FP filter that sets excitation and emission wavelengths at 485 nm and 520 nM separately. Each well of 384-well plate (Coring 3575) contains 10 nM VCB protein, 5 nM FAM-lableled HIF-1α peptide (FAM-DEALAHyp[…], “JC9”), and decreasing concentrations of PROTACs (14 concentrations with 2-fold serial dilution starting from 250 μM) in FP assay buffer (100 mM Bis-Tris propane, 100 mM NaCl, 1 mM TCEP, pH 7) with a final DMSO concentration of 5%. The control wells containing the VCB and JC9 with no compound are set as the maximum signals (zero displacement). And the control wells containing JC9 in the absence of protein are set as the minimum signals. Control values were used to obtain the percentage of displacement which was graphed against Log [Compound]. Average IC50 values were determined for each titration using nonlinear regression analysis with Prism (v.9.3.1).

Rab10 pThr73 = assay: Rab10 Thr73 dephosphorylation (immunoblot) in LRRK2^G2019S MEFs; type: cell-based, mouse; conditions: for inhibition at 1 µM: read-out: pRab10 inhibited in LRRK2^G2019S MEFs; for EC50: dose response, read-out: G2019S MEFs-pRab10-dephosphorylation EC50
LRRK2 [1] = target: T1, LRRK2 (Homo sapiens, UniProt Q5S007); assay: NanoBRET-based ternary binding and cooperativity assay; parameters: host or cells: HEK293 (digitonin-permeabilized); conditions: permeabilized HEK293 cells, without VCB; read-out: IC50 LRRK2 engagement in the absence of VCB
Method: The HEK293 cells were transfected with LRRK2-NanoLuc fusion vector (Promega, NV3401) following Promega's protocol and seeded into white 384-well plate (Corning3570) at a density of 6000 cells/well. The cells were then treated with 50 μg/mL of digitonin, 125 nM of LRRK2 tracer, testing compounds at decreasing concentrations (11 concentrations with 2-fold serial dilution starting from 10 μM) or testing compounds and VCB mix (11 concentrations with 2-fold serial dilution starting from 10 μM compound for the compound. The first 6 concentrations of VCB start from 32 μM with 2-fold dilution, the last 5 concentrations of VCB keep at 1 μM), and NanoBRET NanoGlo Substrate (Promega) at concentration recommended by the manufacturer's protocol. In the maximum signal control samples (DMSO control), DMSO was added instead of testing compounds. In the minimum signal control samples (no tracer control), DMSO and LRRK2 tracer dilution buffer were used to replace testing compounds and LRRK2 tracer separately. The filtered luminescence was measured within 10 min following addition of the substrate on a PHERAstar (BMG LABTECH) plate reader equipped with a 450-nm bandpass filter (donor) and a 600-nm long pass filter (acceptor). The fractional occupancy was calculated according to the equation: fractional occupancy=(mBRETtesting compound−mBRETno tracer control)/(mBRETDMSO control−mBRETno tracer control).

LRRK2 [2] = target: T1, LRRK2; assay: NanoBRET LRRK2 target engagement in HEK293 cells; type: binding; parameters: host or cells: HEK293; conditions: for IC50: read-out: IC50 LRRK2 tracer displacement
Method: For VHL and LRRK2 target engagement experiments in live and permeabilized cells, the HEK293 cells were transfected with VHL-NanoLuc fusion vector (Promega, N275A) or LRRK2-NanoLuc fusion vector (Promega, NV3401) following Promega's protocol and seeded into white 384-well plate (Corning3570) at a density of 6000 cells/well. To measure NanoBRET in permeabilized cells, the cells were treated with 50 μg/mL digitonin (Sigma, D141), 125 nM VHL tracer/125 nM LRRK2 tracer, testing compounds at decreasing concentrations (12 concentrations with 2-fold serial dilution starting from 33 μM), and NanoBRET NanoGlo Substrate (Promega) at concentration recommended by the manufacturer's protocol. In the maximum signal control samples (DMSO control), DMSO was added instead of testing compounds. In the minimum signal control samples (no tracer control), DMSO and tracer dilution buffer were used to replace testing compounds and tracer separately. The filtered luminescence was measured within 10 min following addition of the substrate on a GloMax Discover microplate reader (Promega) or a PHERAstar (BMG LABTECH) plate reader equipped with a 450-nm bandpass filter (donor) and a 600-nm long pass filter (acceptor). To measure NanoBRET in live cells, the cells were treated with 250 nM VHL tracer/500 nM LRRK2 tracer, testing compounds at testing compounds at decreasing concentrations (12 concentrations with 2-fold serial dilution starting from 33 μM) and incubated at 37° C. in an incubator for 2 h. The plates were then cooled down and added with NanoBRET NanoGlo Substrate and Extracellular NanoLuc Inhibitor (Promega, N2160) before performing the same NanoBRET reading as the permeabilized mode on plate readers. NanoBRET ratio of each well was expressed in milliBRET according to the equation: mBRET=[(signal at […]/signal at 450 nM)−(signal at 610 nMno tracer control/signal at 450 nMno tracer control)]×1000. The fractional occupancy was calculated according to the equation: fractional occupancy=(mBRETtesting compound−mBRETno tracer control)/(mBRETDMSO control−mBRETno tracer control).

[3] = Mus musculus, 1 μM/4 h treatment
[4] = time course at 300 nM, LRRK2^G2019S MEFs

With `CNc1nc(Nc2ccc(C(=O)N3CCN(C[C@H]4CC[C@H](CSC(C)(C)[C@H](NC(=O)C5(F)CC5)C(=O)N5C[C@@H](O)CC5C(=O)NCc5ccc(-c6scnc6C)cc5)CC4)CC3)cc2OC)ncc1Cl` (stereo partly drawn) [Cis-XL01126, (2S,4S)-1-((R)-3-((((1r,4R)-4-((4-(4-((5-chloro-4-(methylamino)pyrimidin-2-yl)amino)-3-methoxybenzoyl)piperazin-1-yl)methyl)cyclohexyl)methyl)thio)-2-(1-fluorocyclopropane-1-carboxamido)-3-methylbutanoyl)-4-hydroxy-N-(4-(4-methylthiazol-5-yl)benzyl)pyrrolidine-2-carboxamide] the Ki (VHL) was greater than 50000 nM and the “binding to VHL (in words)” value (VHL; fluorescence polarization) was “does not bind to VHL E3 ligase; also recorded: did not displace the fluorescent tracer”.
Molecule `CNc1nc(Nc2ccc(C(=O)N3CCN(CCOCCOCCSC(C)(C)[C@H](NC(=O)C4(F)CC4)C(=O)N4C[C@H](O)C[C@H]4C(=O)NCc4ccc(-c5scnc5C)cc4)CC3)cc2OC)ncc1Cl` [SD75, (2S,4R)-1-((R)-3-((2-(2-(2-(4-(4-((5-chloro-4-(methylamino)pyrimidin-2-yl)amino)-3-methoxybenzoyl)piperazin-1-yl)ethoxy)ethoxy)ethyl)thio)-2-(1-fluorocyclopropane-1-carboxamido)-3-methylbutanoyl)-4-hydroxy-N-(4-(4-methylthiazol-5-yl)benzyl)pyrrolidine-2-carboxamide] has a Ki (VHL) of 820 nM, an inhibition at 1 µM (Rab10 pThr73; [3]) of 30 to 95% and a Dmax at 1 µM (Rab10 pThr73; Mus musculus, time course at 1000 nM, LRRK2^G2019S MEFs) of 74%. The EC50 (Rab10 pThr73; 24 h treatment) was 379 nM, the “T1/2 of Rab10 dephosphorylation (G2019S)” value (Rab10 pThr73; time course at 1000 nM, LRRK2^G2019S MEFs) was 42 min and the IC50 (LRRK2 [1]) was 1100 nM. The IC50 (LRRK2 [2]; live HEK293 cells) was 1800 nM, the IC50 (LRRK2 [2]; permeabilized HEK293 cells) was 780 nM and the “IC50 ratio IC50, per/IC50, live (LRRK2 engagement)” value (LRRK2 [2]; permeabilized vs live mode) was 0.43.
In the case of `CNc1nc(Nc2ccc(C(=O)N3CCN(C[C@H]4CC[C@H](CSC(C)(C)[C@H](NC(=O)C5(F)CC5)C(=O)N5C[C@H](O)CC5C(=O)NCc5ccc(-c6scnc6C)cc5)CC4)CC3)cc2OC)ncc1Cl` (stereo partly drawn) [XL01126, (2S,4R)-1-((R)-3-((((1R,4R)-4-((4-(4-((5-chloro-4-(methylamino)pyrimidin-2-yl)amino)-3-methoxybenzoyl)piperazin-1-yl)methyl)cyclohexyl)methyl)thio)-2-(1-fluorocyclopropane-1-carboxamido)-3-methylbutanoyl)-4-hydroxy-N-(4-(4-methylthiazol-5-yl)benzyl)pyrrolidine-2-carboxamide], the Ki (VHL) is reported as 908 to 5950 nM, the EC50 (Rab10 pThr73; Mus musculus, 4 h treatment) is reported as 15 nM and the “T1/2 of Rab10 dephosphorylation (G2019S)” value (Rab10 pThr73; [4]) is reported as 18 min. For the same molecule, the IC50 (LRRK2 [1]) was 2000 nM, the IC50 (LRRK2 [2]; live HEK293 cells) was 1400 nM and the “LRRK2 tracer displacement (in words)” value (LRRK2 [2]; permeabilized HEK293 cells) was “poor displacement”.
For `CNc1nc(Nc2ccc(C(=O)N3CCN(C[C@H]4CC[C@@H](CSC(C)(C)[C@H](NC(=O)C5(F)CC5)C(=O)N5C[C@H](O)CC5C(=O)NCc5ccc(-c6scnc6C)cc5)CC4)CC3)cc2OC)ncc1Cl` (some centres unmarked) [XL01134], the Ki (VHL) was 160 nM, the inhibition at 1 µM (Rab10 pThr73; [3]) was 20 to 100% and the inhibition at 1 µM (Rab10 pThr73; Mus musculus, 1 μM/24 h treatment) was 10 to 100%. For the same molecule, the EC50 (Rab10 pThr73; Mus musculus, 4 h treatment) was 12 nM, the Dmax at 0.3 µM (Rab10 pThr73; Mus musculus, time course at 300 nM, LRRK2^G2019S MEFs) was 87% and the “T1/2 of Rab10 dephosphorylation (G2019S)” value (Rab10 pThr73; [4]) was 18 min. The IC50 (LRRK2 [1]) was 1100 nM, the IC50 (LRRK2 [2]; live HEK293 cells) was 2200 nM and the IC50 (LRRK2 [2]; permeabilized HEK293 cells) was 2000 nM.
